Laboratory results reported in the Bradley open melting point set (2014).
Where “and” joins values, the source holds several entries; their conditions need not be identical. Identical values can stand only once. Counter-ions that a name gives are not always drawn.

SMILES	melting point
CC(=O)OCCOC(C)=O [ethylene_glycol_diacetate]	-41 °C
Oc1c(Br)cc(Br)cc1Br [2,4,6-tribromophenol]	89 °C
CC(=O)OC1CCC2C3CCC4CC(CC(=O)O)CCC4(C)C3CCC12C (configuration not stated) [[17-(acetyloxy)androstan-3-yl]acetic acid]	152 °C
Cc1cccc([N+](=O)[O-])c1C [3-nitro-o-xylene]	14 °C
CCNc1ccccc1 [n-ethylaniline]	-63 °C
Clc1cccc(Cl)c1Cl [1,2,3-trichlorobenzene]	54 °C
Cc1cc[n+]([O-])cc1C(N)=O [4-methylpyridine-3-carboxamide 1-oxide]	280 °C
COc1cccc(OC)c1C(C)=O [2',6'-dimethoxyacetophenone]	70 °C
Sc1ccc(Br)cc1 [4-bromothiophenol]	75 °C
CCc1ccccc1N [2-ethylaniline]	-44 °C
O=C(O)C1CCCC1 [cyclopentanecarboxylic acid]	3.5 °C
O=[N+]([O-])c1cccc(Cl)c1 [1-chloro-3-nitrobenzene]	45 °C
COC(=O)c1ccc(OC)cc1 [methyl 4-methoxybenzoate]	50 °C
O=C2/N=C\1/N(c3cc(c(cc3/N=C/1C(=O)N2)C)C)CC(O)C(O)C(O)CO (configuration not stated) [riboflavin]	280 °C
C[C@H]1C[C@H]2[C@@H]3CCC4=CC(=O)C=C[C@]4(C)[C@@]3(F)[C@@H](O)C[C@]2(C)[C@@]1(O)C(=O)CO [Betamethasone]	232 °C
Cc1ccccc1-c1ccccc1 [1-methyl-2-phenylbenzene]	0 °C
O=C(O)c1cccc([N+](=O)[O-])c1 [3-nitrobenzoic acid]	142 °C
OCc1ccccc1-c1ccccc1 [o-phenylbenzyl_alcohol]	50 °C
Fc1ccc2cc[nH]c2c1 [6-fluoroindole]	76 °C
O=C(O)c1cccc([N+](=O)[O-])c1 [3-Nitrobenzoic acid]	142 °C
Nc1ccc(CO)cc1 [4-aminobenzyl alcohol]	61 °C
C/C(C)=C(/C)C [2,3-dimethyl-2-butene]	-74 °C

SMILES	melting point
Cc1c(C)c(C)c2c(c1C)CC2=O [2,3,4,5-Tetramethylbicyclo(4.2.0)octa-1,3,5-trien-7-one]	161 °C
CC(=O)/N=c1\sc(C(C)=O)nn1-c1ccc(F)cc1	158 °C
BrC=Cc1ccccc1 [beta-bromostyrene, cis trans]	-8 °C
O=C(O)c1cnc(Br)s1 [2-bromothiazole-5-carboxylic acid]	182 °C
O=C(O)CC(F)(F)F [3,3,3-trifluoropropionic acid]	9 °C
O=C(O)C1CCCCC1 [cyclohexanecarboxylic acid]	30 °C
O=C(O)Cc1cccc(Cl)c1 [3-chlorophenylacetic acid]	79 °C
CCOC(=O)/C(C#N)=C\c1ccc(-c2ccc(C)cc2)o1 [Ethyl (2Z)-2-cyano-3-[5-(4-methylphenyl)-2-furyl]acrylate]	124 °C
O=C(O)CCP(=O)(O)O [3-phosphonopropionic acid]	164 °C
Fc1ccc(F)c(F)c1F [1,2,3,4-tetrafluorobenzene]	-42 °C
BrCCCCBr [1,4-dibromobutane]	-20 °C
CCCCCCCc1ccccc1 [N-heptylbenzene]	-48 °C
CN1[C@@H]2CC[C@H]1CC(=O)C2 [Tropinone]	43 °C
OC1c2ccccc2-c2ccccc21 [9-fluorenol]	156 °C
Cc1c(N)cccc1N [2,6-diaminotoluene]	97 °C
C[C@H]1c2cccc(O)c2C(=O)C2=C(O)[C@]3(O)C(=O)C(C(N)=O)=C(O)[C@@H](N(C)C)[C@@H]3[C@@H](O)[C@@H]21 [Doxycycline]	201 °C
Clc1ccc(-c2ccccc2)cc1 [PCB-3]	78 °C
c1cc(N2CCNCC2)ccn1 [1-(4-pyridyl)piperazine]	139 °C
COc1cc(OC)c2c(c1Cl)O[C@]1(C2=O)C(OC)CC(=O)C[C@H]1C (some centres not stated) [griseofulvin]	220 °C
Nc1ccc(S(=O)(=O)Nc2ncccn2)cc1 [Sulfadiazine]	259 °C
ClC(Cl)c1ccccc1 [benzal chloride]	-16 °C
O=C(O)/C=C/c1ccccc1 [trans-cinnamic acid]	135 °C

Next, values leading:

melting point	SMILES
183 °C	CS(=O)c1ccc(cc1)/C=C3c2ccc(F)cc2C(CC(=O)O)=C3C (configuration not stated) [Sulindac]
240 °C	O=C(O)c1ccc([N+](=O)[O-])cc1 [4-nitrobenzoic acid]
36 °C	OCCCCCCCCCCc1ccccc1 [10-Phenyldecan-1-ol]
124 °C	CCOC(=O)n1ccn(C)c1=S [ethyl 3-methyl-2-thionoimidazoline-1-carboxylate]
77 °C	O=C(O)[C@@H]1CCCN1C(=O)OCc1ccccc1 [N-Cbz-L-proline]
-26 °C	CCCCCCCCCCS [1-decanethiol]
224 °C	Cc1ccc(C)c2c1C(=O)NC2=O [4,7-dimethyl-1H-isoindole-1,3(2H)-dione]
133 °C	Cc1c(C)c(C)c(C=O)c(C)c1C [Pentamethylbenzaldehyde]
46 °C	C1=CC2CCC1C2 [norbornene]
103 °C	COC(=O)C1(C)C(C(C)=O)=Nc2ccccc21 (configuration not stated) [methyl 2-acetyl-3-methyl-3H-indole-3-carboxylate]
187 °C	CC(=O)N[C@H]1[C@H](OC(C)=O)O[C@H](COC(C)=O)[C@@H](OC(C)=O)[C@@H]1OC(C)=O [beta-D-glucosamine pentaacetate]
50 °C	FC(F)(F)c1cccc(Br)n1 [2-bromo-6-(trifluoromethyl)pyridine]
188 °C and 189 °C	Nc1ncc2ncn(COCCO)c2n1 [6-Deoxyacyclovir]
198 °C	OC[C@H]1O[C@@H](Oc2ccc(O)cc2)[C@H](O)[C@@H](O)[C@@H]1O [arbutin]
225 °C	COc1ccc(-c2cc(=O)c3c(O)c(OC)c(O)cc3o2)cc1 [5,7-Dihydroxy-6-methoxy-2-(4-methoxyphenyl)-4H-chromen-4-one]
-93 °C	CCCN(CCC)CCC [tri-n-propylamine]
242 °C	Cc1c2oc3c(C)ccc(C(=O)NC4C(=O)NC(C(C)C)C(=O)N5CCCC5C(=O)N(C)CC(=O)N(C)C(C(C)C)C(=O)OC4C)c3nc-2c(C(=O)NC2C(=O)NC(C(C)C)C(=O)N3CCCC3C(=O)N(C)CC(=O)N(C)C(C(C)C)C(=O)OC2C)c(N)c1=O (configuration not stated) [Dactinomycin]
52 °C	CC(C)C(O)C(C)(C)CO (configuration not stated) [2,2,4-trimethyl-1,3-pentanediol]
216 °C	CC(=O)Nc1ccc([N+](=O)[O-])cc1 [4'-nitroacetanilide]
235 °C	NC(=O)C[C@H](N)C(=O)O [L-Asparagine]
42 °C	CCCCCOc1ccc(/N=N/c2ccc(CCCC)cc2)cc1 [(E)-1-(4-butylphenyl)-2-[4-(pentyloxy)phenyl]diazene]
-97 °C	COCC(C)O (configuration not stated) [1-Methoxypropan-2-ol]
129 °C	COc1ccc(NC(=S)c2cc(C(C)(C)C)c(O)c(C(C)(C)C)c2)cc1
300 °C	N#CC(=Cc1cccc(O)c1)C1N=c2ccccc2=N1

melting point	SMILES
3 °C	Cc1nc2ccccc2o1 [2-methylbenzoxazole]
168 °C	CN(C)[C@@H]1C(O)=C(C(N)=O)C(=O)[C@@]2(O)C(O)=C3C(=O)c4c(O)ccc(Cl)c4[C@@](C)(O)[C@H]3C[C@@H]12 [chlortetracycline]
84 °C	COC(=O)c1cc(OC)c(OC)c(OC)c1 [methyl_3,4,5-trimethoxybenzoate]
-6 °C	Cc1ccc(C)c(C)c1C [1,2,3,4-tetramethylbenzene]
-68 °C	Cc1ccc(C(C)C)cc1 [1-Isopropyl-4-methylbenzene]
139 °C	CCOC(=O)c1ccc(B(O)O)cc1 [4-(ethoxycarbonyl)benzeneboronic acid]
114 °C	OB(O)c1ccc(C(F)(F)F)cc1F [2-fluoro-4-(trifluoromethyl)benzeneboronic acid]
104 °C	COC(=O)/C=C/C(=O)OC [dimethyl fumarate]
147 °C	O=C(/C=C/c1ccc(-c2cccc([N+](=O)[O-])c2)o1)c1ccccc1 [(2E)-3-[5-(3-Nitrophenyl)-2-furyl]-1-phenylprop-2-en-1-one]
224 °C	O=C(O)c1cc(Cl)cc(Cl)c1O [3,5-dichlorosalicylic acid]
113 °C	C=C1C(C[C@@H](O)C[C@@H]1O)=CC=C2/CCC[C@]3(C)[C@H](CC[C@@H]23)[C@H](C)CCCC(C)(C)O [Calcitriol]
232 °C	CC(=O)O[C@@]12CO[C@@H]1C[C@H](O)[C@@]1(C)C(=O)[C@H](O)C3=C(C)[C@@H](OC(=O)[C@H](O)[C@@H](NC(=O)OC(C)(C)C)c4ccccc4)C[C@@](O)([C@@H](OC(=O)c4ccccc4)[C@H]21)C3(C)C [Docetaxel]
206 °C (2×) and 208 °C and 204 °C (2×)	NS(=O)(=O)c1cc(C(=O)O)c(NCc2ccco2)cc1Cl [furosemide]
85 °C	Clc1cc(Cl)c(Cl)c(Cl)c1Cl [Pentachlorobenzene]
114 °C	Ic1ccc(-c2ccccc2)cc1 [4-iodobiphenyl]
147 °C	CCOC(=O)/C(=N/Nc1cc(Cl)ccc1Cl)C(=O)C(F)(F)F
178 °C	Cc1cc(CC(=O)O)n(C)c1C(=O)c1ccc(Cl)cc1 [zomepirac]
202 °C	NC(=O)c1ccc([N+](=O)[O-])cc1 [4-Nitrobenzamide]
212 °C	O=c1c2ccccc2sc2ccccc12 [thioxanthen-9-one]
73 °C	CC(C)(C)/[N+]([O-])=C/c1ccccc1 [N-tert-butyl-alpha-phenylnitrone]
133 °C	CC(=O)C=C(C)c1ccc(-c2ccccc2)cc1 [Xenipentone]
146 °C	OB(O)c1cc2ccccc2nc1Cl [2-chloroquinoline-3-boronic acid]
12 °C	CCCCCCCCCCCC=O [dodecanal]
210 °C	O=c1c2ccccc2sc2ccccc12 [Thiaxanthone]
